Assay [1] in a line: LMP1-induced NF-kB luciferase signal inhibition – cell-based, EBV LMP1, dry powder, set 2, dose response (AID 624361). Particulars: LMP1-induced NF-kappaB luciferase reporter cells, luminescence; at 35 µM (top of the series). For orientation: A reporter such as luciferase makes a cellular process visible.
In assay [2] the test system is LMP1-induced NF-kappaB luciferase reporter cells, luminescence. The description is as above.

Data on 58 compounds can be found in PubChem BioAssay AID624361 (Broad Institute, 2012).

Inconclusive results are not listed. Activity calls are given as the source filed them. The rule behind the calls is not given here.

Regarding `O=C(Cc1ccccn1)NCC[C@H]1CC[C@H](NC(=O)Nc2ccc(Cl)cc2)[C@H](CO)O1`, the activity change, negative = inhibition in assay [1] was -1.01% (inactive).

For the compound `O=C(Cc1ccccn1)NCC[C@H]1CC[C@H](NC(=O)Nc2ccc(Cl)cc2)[C@@H](CO)O1`, the activity change, negative = inhibition in assay [1] was -4.61% (inactive).

As for `CO[C@H]1CN(C)C(=O)c2ccc(NC(=O)C3CC3)cc2OC[C@H](C)N(C(=O)c2ccccn2)C[C@H]1C`, in assay [1], the activity change, negative = inhibition was -14% (inactive).

As for `C[C@H](NC(=O)C[C@H]1C=C[C@H](NC(=O)Cc2ccccn2)[C@H](CO)O1)c1ccccc1`, the activity change, negative = inhibition in assay [1] was 5.47% (inactive).

Take `C/C=C/c1cccc(-c2nc(C(=O)Nc3nccs3)cc3c2[C@@H](CCO)N(C(=O)NC(C)C)C3)c1`: the activity change, negative = inhibition in assay [1] is -17% (inactive).

As for `C[C@H]1CN([C@@H](C)CO)C(=O)Cc2cc(NC(=O)Cc3ccccc3)ccc2O[C@H]1CN(C)Cc1ccc(C(F)(F)F)cc1`, the activity change, negative = inhibition in assay [1] was 11.5% (inactive).

On to `C[C@@H](NC(=O)C[C@H]1C=C[C@@H](NC(=O)Cc2ccccn2)[C@H](CO)O1)c1ccccc1`, for which the activity change, negative = inhibition in assay [1] was -5.56% (inactive).

Regarding `C[C@@H]1CN([C@H](C)CO)C(=O)c2c(c3ccccc3n2C)-c2ccccc2CO[C@@H]1CN(C)C(=O)Nc1ccc(F)cc1`, the activity change, negative = inhibition in assay [1] was -8.91% (inactive).

Turning to `COC(=O)C[C@H]1C[C@H]2c3cc(NC(=O)CN(C)C)ccc3O[C@H]2[C@H](CO)O1`, in assay [1], the activity change, negative = inhibition is -4.37% (inactive).

`C[C@@H](NC(=O)C[C@@H]1C=C[C@@H](NC(=O)Cc2ccccn2)[C@H](CO)O1)c1ccccc1`: in assay [1], the activity change, negative = inhibition was 5.05% (inactive).

On to `C[C@H](NC(=O)C[C@H]1C=C[C@@H](NC(=O)Cc2ccccn2)[C@H](CO)O1)c1ccccc1`, for which the activity change, negative = inhibition in assay [1] was -1.8% (inactive).

Turning to `Cc1noc(C)c1S(=O)(=O)Nc1ccc2c(c1)C(=O)N([C@H](C)CO)C[C@@H](C)[C@@H](CN(C)Cc1ccc(C(F)(F)F)cc1)OCCCC[C@@H](C)O2`, the activity change, negative = inhibition in assay [1] was 1.95% (inactive).

As to `CC(C)(C)[S@@](=O)N1Cc2cc(C(=O)NCCc3ccncc3)nc(-c3cccc(-c4cccnc4)c3)c2[C@H]1CCO`, the activity change, negative = inhibition in assay [1] was -15% (inactive).

For `C[C@H]1CN([C@@H](C)CO)C(=O)Cc2cc(NC(=O)Cc3ccccc3)ccc2O[C@@H]1CN(C)Cc1ccc(C(F)(F)F)cc1`, the activity change, negative = inhibition in assay [1] was -12.8% (inactive).

With `C[C@H](CO)N1C[C@H](C)[C@H](CN(C)Cc2ccc(C(F)(F)F)cc2)Oc2ccc(NC(=O)Cc3ccccc3)cc2CC1=O`, the activity change, negative = inhibition in assay [1] is 4.01% (inactive).

Turning to `CO[C@@H]1CN(C)C(=O)c2ccc(NC(C)=O)cc2OC[C@@H](C)N(Cc2ccccc2F)C[C@H]1C`, the activity change, negative = inhibition in assay [1] is 0.476% (inactive).

In the case of `C[C@H]1CN([C@@H](C)CO)C(=O)c2c(c3ccccc3n2C)-c2ccccc2CO[C@@H]1CN(C)C(=O)Nc1ccc(F)cc1`, the activity change, negative = inhibition in assay [1] is -12.4% (inactive).

`C[C@@H]1CN([C@@H](C)CO)C(=O)c2c(c3ccccc3n2C)-c2ccccc2CO[C@@H]1CN(C)C(=O)Nc1ccc(F)cc1`: in assay [1], the activity change, negative = inhibition is -5.35% (inactive).

For the compound `COc1ccccc1C(=O)Nc1ccc2c(c1)C(=O)N(C)[C@@H]1CC[C@H](CC(=O)NCCc3ccncc3)O[C@H]1CO2`, the activity change, negative = inhibition in assay [1] is -6.13% (inactive).

Regarding `CS(=O)(=O)Nc1ccc2c(c1)[C@H]1C[C@@H](CC(=O)NCC3CC3)O[C@@H](CO)[C@H]1O2`, the activity change, negative = inhibition in assay [1] was 8.63% (inactive).

In the case of `Cc1noc(C)c1S(=O)(=O)Nc1ccc2c(c1)C(=O)N([C@H](C)CO)C[C@H](C)[C@@H](CN(C)Cc1ccc(C(F)(F)F)cc1)OCCCC[C@@H](C)O2`, the activity change, negative = inhibition in assay [1] was -11.1% (inactive).

With `C[C@H](CO)N1C[C@H](C)[C@@H](CN(C)Cc2ccc(C(F)(F)F)cc2)Oc2ccc(NC(=O)Cc3ccccc3)cc2CC1=O`, the activity change, negative = inhibition in assay [1] was -11.3% (inactive).

Regarding `C[C@H](NC(=O)C[C@H]1C=C[C@H](NC(=O)Cc2ccccn2)[C@@H](CO)O1)c1ccccc1`, in assay [1], the activity change, negative = inhibition is 3.66% (inactive).

As for `O=C(Cc1ccccn1)NCC[C@H]1CC[C@@H](NC(=O)Nc2ccc(Cl)cc2)[C@H](CO)O1`, the activity change, negative = inhibition in assay [1] is -2.38% (inactive).

Consider `C[C@@H](NC(=O)C[C@H]1C=C[C@H](NC(=O)Cc2ccccn2)[C@@H](CO)O1)c1ccccc1`, for which the activity change, negative = inhibition in assay [1] was 9.43% (inactive).

In the case of `O=C(C[C@H]1C[C@@H]2c3cc(NS(=O)(=O)c4ccc(F)cc4)ccc3O[C@@H]2[C@H](CO)O1)NC1CCCCC1`, in assay [1], the activity change, negative = inhibition was -1.53% (inactive).

For `C[C@H](NC(=O)C[C@@H]1C=C[C@@H](NC(=O)Cc2ccccn2)[C@H](CO)O1)c1ccccc1`, in assay [1], the activity change, negative = inhibition is -0.475% (inactive).

`O=C(Cc1ccccn1)NCC[C@@H]1CC[C@H](NC(=O)Nc2ccc(Cl)cc2)[C@H](CO)O1`: in assay [1], the activity change, negative = inhibition is -5.88% (inactive).

Turning to `C[C@@H]1CN([C@@H](C)CO)C(=O)Cc2cc(NC(=O)Cc3ccccc3)ccc2O[C@@H]1CN(C)Cc1ccc(C(F)(F)F)cc1`, the activity change, negative = inhibition in assay [1] is -12.6% (inactive).

In the case of `C[C@@H](NC(=O)C[C@H]1C=C[C@H](NC(=O)Cc2ccccn2)[C@H](CO)O1)c1ccccc1`, the activity change, negative = inhibition in assay [1] was 9.56% (inactive).

Take `C[C@H](NC(=O)C[C@@H]1C=C[C@H](NC(=O)Cc2ccccn2)[C@@H](CO)O1)c1ccccc1`: the activity change, negative = inhibition in assay [1] is -0.999% (inactive).

Turning to `O=C(Cc1ccccn1)NCC[C@@H]1CC[C@@H](NC(=O)Nc2ccc(Cl)cc2)[C@@H](CO)O1`, the activity change, negative = inhibition in assay [1] was 1.94% (inactive).

Turning to `C[C@@H](NC(=O)C[C@@H]1C=C[C@@H](NC(=O)Cc2ccccn2)[C@@H](CO)O1)c1ccccc1`, the activity change, negative = inhibition in assay [1] was 9.33% (inactive).

As to `C[C@@H]1CN([C@H](C)CO)C(=O)Cc2cc(NC(=O)Cc3ccccc3)ccc2O[C@H]1CN(C)Cc1ccc(C(F)(F)F)cc1`, the activity change, negative = inhibition in assay [1] is -9.16% (inactive).

`C[C@@H]1CN([C@H](C)CO)C(=O)c2c(c3ccccc3n2C)-c2ccccc2CO[C@H]1CN(C)C(=O)Nc1ccc(F)cc1`: the activity change, negative = inhibition in assay [1] was -3.16% (inactive).

In the case of `CS(=O)(=O)Nc1ccc2c(c1)[C@@H]1C[C@H](CC(=O)NCC3CC3)O[C@H](CO)[C@@H]1O2`, the activity change, negative = inhibition in assay [1] is -4.41% (inactive).

In the case of `C[C@@H](NC(=O)C[C@H]1C[C@@H]2c3cc(NC(=O)c4cccnc4)ccc3O[C@@H]2[C@@H](CO)O1)c1ccccc1`, the activity change, negative = inhibition in assay [1] is -0.38% (inactive).

As to `COC(=O)C[C@@H]1C[C@@H]2c3cc(NC(=O)CN(C)C)ccc3O[C@@H]2[C@@H](CO)O1`, the activity change, negative = inhibition in assay [1] was -0.64% (inactive).

For the compound `COc1ccccc1CNC(=O)C[C@H]1C[C@@H]2c3cc(NC(=O)CN(C)C)ccc3O[C@@H]2[C@@H](CO)O1`, in assay [1], the activity change, negative = inhibition is 0.74% (inactive).

With `C[C@H](NC(=O)C[C@H]1C[C@@H]2c3cc(NC(=O)c4cccnc4)ccc3O[C@@H]2[C@@H](CO)O1)c1ccccc1`, the activity change, negative = inhibition in assay [1] is 0.067% (inactive).

On to `O=C(Cc1ccccn1)NCC[C@@H]1CC[C@@H](NC(=O)Nc2ccc(Cl)cc2)[C@H](CO)O1`, for which the activity change, negative = inhibition in assay [1] is 10.1% (inactive).

As for `C[C@H](CO)N1C[C@H](C)[C@H](CN(C)Cc2ccc(Oc3ccccc3)cc2)Oc2ccc(NC(=O)CCCN(C)C)cc2C1=O`, the activity change, negative = inhibition in assay [1] is 16.2% (inactive).

For `O=C(C[C@@H]1C[C@@H]2c3cc(NC(=O)c4cccnc4)ccc3O[C@@H]2[C@H](CO)O1)NCC(F)(F)F`, the activity change, negative = inhibition in assay [1] is -2.29% (inactive).

Consider `C[C@@H](NC(=O)C[C@@H]1C=C[C@H](NC(=O)Cc2ccccn2)[C@@H](CO)O1)c1ccccc1`, for which the activity change, negative = inhibition in assay [1] is 8.29% (inactive).

For the compound `C[C@@H](NC(=O)C[C@@H]1C=C[C@H](NC(=O)Cc2ccccn2)[C@H](CO)O1)c1ccccc1`, the activity change, negative = inhibition in assay [1] is -1.52% (inactive).

As for `O=C(C[C@@H]1C[C@H]2c3cc(NS(=O)(=O)c4ccc(F)cc4)ccc3O[C@H]2[C@@H](CO)O1)NC1CCCCC1`, the activity change, negative = inhibition in assay [1] was -2.44% (inactive).

For the compound `O=C(Cc1ccccn1)NCC[C@@H]1CC[C@H](NC(=O)Nc2ccc(Cl)cc2)[C@@H](CO)O1`, in assay [1], the activity change, negative = inhibition was -3.42% (inactive).

Turning to `Cc1noc(C)c1S(=O)(=O)Nc1ccc2c(c1)C(=O)N([C@H](C)CO)C[C@@H](C)[C@H](CN(C)Cc1ccc(C(F)(F)F)cc1)OCCCC[C@H](C)O2`, the AC35 in assay [2] is 31.2 µM.

As for `O=C(C[C@@H]1CC[C@H]2[C@@H](COC[C@H](O)CN2Cc2ccc(Oc3ccccc3)cc2)O1)N1CCc2ccccc2C1`, in assay [2], the AC35 is 25.7 µM.

With `N#C[C@H]1[C@H](c2ccc(C#Cc3ccccc3F)cc2)[C@H](CO)N1C(=O)c1cccnc1`, the AC35 in assay [2] was 20.8 µM.

As for `COc1ccccc1C#Cc1cnc2c(c1)C(=O)N([C@@H](C)CO)C[C@H](C)[C@@H](CN(C)C(=O)c1ccc3c(c1)OCO3)O2`, the AC35 in assay [2] is 31.2 µM.

For the compound `COc1ccccc1C#Cc1ccc2c(c1)O[C@H](CN(C)Cc1cccnc1)[C@H](C)CN([C@H](C)CO)S2(=O)=O`, the AC35 in assay [2] is 20.3 µM.

As for `Cc1cc(C(=O)Nc2ccc3c(c2)C(=O)N(C)[C@@H]2CC[C@@H](CC(=O)NCc4ccc(-c5ccccc5)cc4)O[C@H]2CO3)no1`, in assay [2], the AC35 was 4.76 µM.

For `COc1ccc(-c2cccc(-c3nc(C(=O)NCC(F)(F)F)cc4c3[C@H](CCO)N([S@@](=O)C(C)(C)C)C4)c2)cc1`, the AC35 in assay [2] is 21.5 µM.

For the compound `Cc1noc(C)c1S(=O)(=O)Nc1ccc2c(c1)C(=O)N([C@@H](C)CO)C[C@@H](C)[C@H](CN(C)Cc1ccc(C(F)(F)F)cc1)OCCCC[C@H](C)O2`, the AC35 in assay [2] is 25.6 µM.

For the compound `C[C@@H]1CN([C@@H](C)CO)C(=O)Cc2cc(NC(=O)Cc3ccccc3)ccc2O[C@H]1CN(C)Cc1ccc(C(F)(F)F)cc1`, in assay [2], the AC35 is 30 µM.

Take `CN1C(=O)c2cc(NC(=O)c3ccc(C(F)(F)F)cc3)ccc2OC[C@@H]2O[C@@H](CC(=O)NC3Cc4ccccc4C3)CC[C@H]21`: the AC35 in assay [2] is 11.6 µM.

With `O=C(C[C@@H]1C[C@H]2c3cc(NC(=O)c4ccc5c(c4)OCO5)ccc3O[C@H]2[C@H](CO)O1)NC1CCCCC1`, the AC35 in assay [2] is 24 µM.
